Laboratory results: PMC9501525, “Conjugation of a Cationic Cell-Penetrating Peptide with a Novel Kunitzin-like Trypsin Inhibitor: New Insights for Enhancement of Peptide Bioactivities” (Pharmaceutics, 2022)
Peptide text beside a SMILES is read from it.

Columns and labels:
[1] = molecular target: T1, trypsin (Bos taurus, UniProt P00760); assay: Trypsin inhibition determination (fluorogenic substrate, Morrison Ki); type: biochemical; settings: Morrison equation; substrate Phe-Pro-Arg-AMC in PBS; Km = 67.38 μM, [S] = 42.86 μM, Et = 0.0020 μM; peptide 0.1–100 µM; nine replications in three experiments; N.I. = no inhibitory effect
T1 construct: gene PRSS1
T1 sequence (P00760 24-246): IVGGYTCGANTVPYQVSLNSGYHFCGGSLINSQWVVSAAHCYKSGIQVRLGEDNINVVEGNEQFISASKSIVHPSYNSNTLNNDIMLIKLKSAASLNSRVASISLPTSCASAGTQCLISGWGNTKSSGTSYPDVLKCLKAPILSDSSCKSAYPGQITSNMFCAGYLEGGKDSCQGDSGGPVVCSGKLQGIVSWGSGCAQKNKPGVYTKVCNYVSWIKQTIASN
Description: Phe-Pro-Arg-AMC (Bachem, Merseyside, UK) and succinyl-Ala-Ala-Pro-Phe-AMC (Bachem, Merseyside, UK) were used as substrates for trypsin and chymotrypsin inhibition determinations, respectively. Serial peptide dilutions (0.1–100 µM in phosphate buffered saline (PBS)) were incubated with 180 µL of substrate solution (50 µM in PBS) in a black 96-well plate under dark conditions for 10 min. Immediately prior to measurement, 10 µL of trypsin/chymotrypsin working solution (0.1 µM in PBS) was added to each well (final volume of 210 µL) in the plate. Subsequently, the fluorescence intensity was measured with the FLUO star OPTIMA plate reader (BMG Labtech, Ortenberg, Germany). The whole measurement process lasted for 30 min and was carried out at an emission wavelength of 460 nm and an excitation wavelength of 395 nm. The inhibition curves of trypsin and chymotrypsin were analyzed by non-linear regression using the Morrison equation in Prism 9 (Trypsin Km = 67.38 μM; Chymotrypsin Km = 17.15 μM; [S] = 42.86 μM; Et = 0.0020 μM).

[2] = test system: K. pneumoniae (ATCC 43816); type: cell-based, Klebsiella pneumoniae; settings: for MIC: MHB, 5 × 10^5 CFU/mL, overnight; for MBC: clear wells spotted onto MHA
Description: The antimicrobial efficacy screening of the purified peptides was performed by MIC/MBC experiments on the following six different bacteria and an opportunistic pathogenic yeast: E. coli (ATCC 8739), Klebsiella pneumoniae (K. pneumoniae) (ATCC 43816), Pseudomonas aeruginosa (P. aeruginosa) (ATCC 9027), Staphylococcus aureus (S. aureus) (ATCC 6538), methicillin-resistant Staphylococcus aureus (MRSA) (NCTC 12493), Enterococcus faecium (E. faecium) (NCTC 12697), and Candida albicans (C. albicans) (ATCC 10231). First, frozen beads of respective cultures were inoculated into Mueller Hinton broth (MHB) medium and incubated overnight at 37 °C. Next, 500 µL of respective suspensions were added to the fresh MHB medium for incubation, and then sub-cultured until reaching the log growth phase, which was determined by measuring the absorbance of cultures at a wavelength of 550 nm. Then, the subcultures were diluted to 5 × 10^5 CFU/mL and 99 µL of suspension was removed and mixed with 1 µL of peptide solution at different concentrations (double-dilution of 12,800 to 100 µM) in a 96-well plate. The blank control, vehicle control, growth control, and the positive control groups were prepared according to the conditions mentioned previously. The peptide solutions were added to the plate and mixed with the diluted microbial suspensions. After overnight incubation, the absorbance at 550 nm of each well was measured with a Synergy HT plate reader (Biotech, Minneapolis, MN, USA). Subsequently, the samples in each clear well were spotted onto Mueller Hinton agar (MHA) plates for the MBC assays of the tested peptides.

[3] = test system: horse erythrocytes; assay: Haemolysis activity assay; type: cell-based; settings: 2% horse erythrocytes in PBS, 37 °C, 2 h
Description: Horse erythrocytes (TCS Biosciences Ltd., Buckingham, UK) were washed completely with PBS and resuspended to obtain a 2% horse erythrocyte suspension. Then, the peptide solutions at different concentrations were gently mixed with the same volume of horse red blood cell suspension and the mixture of peptide and horse erythrocytes was placed into a humidified incubator at 37 °C for 2 h. After incubation, the mixture of all experimental groups was centrifuged at 900× g for 10 min and the supernatants obtained were transferred to a blank 96-well plate. The absorbance of each well was measured at 550 nm using the Synergy HT plate reader.

[4] = test system: PC-3 human prostate cancer cells; assay: MTT cell antiproliferation assay; type: cell-based; settings: PC-3, MTT, 24 h of treatment, serum free medium, 10^−9–10^−4 M
Description: (§1) The antiproliferative activities of the synthesized peptides were assessed on six human cancer cell lines (PC-3, H157, H460, H838, MCF-7, U251MG) and two human normal cell lines (HMEC-1 and MRC-5) using the MTT cell viability assay. Human lung cancer cells (H838, H157, and H460) and human prostate cancer cells (PC-3) were cultured in complete growth medium (CGM) (Roswell Park Memorial Institute (RPMI) 1640 Medium (Gibco, Paisley, UK): Fetal bovine serum (FBS) (Gibco, Campinas, Brazil): Penicillin-streptomycin solution (PS) (Gibco, Grand Island, NY, USA) 89/10/1 v/v/v). Human glioblastoma astrocytoma (U251MG) and human breast cancer cell (MCF-7) were cultured in complete growth medium (Dulbecco’s Modified Eagle medium (DMEM) (Gibco, Paisley, UK): FBS: PS 89/10/1 v/v/v). Human microvascular endothelial cells (HMEC-1) and human pulmonary fibroblast cells (MRC-5) were cultured in MCDB131 medium (supplemented with 10% FBS, 1% PS, 10 ng/mL epidermal growth factor, 1 µg/mL hydrocortisone, and 10 mM glutamine) and Eagle’s Minimal Essential Medium (EMEM) (supplemented with 10% FBS and 1% PS), respectively. Cell suspension, containing 8 × 10^3 cells per 100 µL, was first added to 96-well plates for overnight incubation. Then, the adherent cells in the 96-well plates were subject to cell starvation using the serum free medium treatment for at least 4 h to ensure that the cells were all in the same growth cycle. The peptide solutions, with final concentrations of 10^−9–10^−4 M, were prepared with serum free medium and added onto the plate. In addition, Triton X-100 (0.1%) (Sigma-Aldrich, St. Louis, MO, USA) was used as a positive control. After 24 h of administration, the MTT solution was added to the plate and incubated for 2 h. Then, the supernatant was discarded and DMSO was added to dissolve the purple formazan crystals. The absorbance was measured in all wells using the Synergy HT plate reader at a wavelength of 570 nm.

[5] = test system: H838 human lung cancer cells; assay: MTT cell antiproliferation assay; type: cell-based; settings: 24 h of treatment, serum free medium, 10^−9–10^−4 M
Description: as §1

[6] = test system: MRC-5 human pulmonary fibroblast cells; assay: MTT cell antiproliferation assay; type: cell-based; settings: MRC-5 normal cells, 24 h of treatment, 10^−9–10^−4 M
Description: as §1

[7] = test system: H157 human lung cancer cells; assay: MTT cell antiproliferation assay; type: cell-based; settings: 24 h of treatment, serum free medium, 10^−9–10^−4 M
Description: as §1

[8] = peptide 128 µM (maximum test concentration), vs 0.1% Triton X-100

Compound	Ki [1] [µM]	MIC [2] [µM]	MBC [2] [µM]	Haemolytic activity [3, 8]	IC50 [4] [µM]	IC50 [5] [µM]	IC50 [6] [µM]	IC50 [7] [µM]	Trypsin Ki [1]	Haemolytic activity ([3]; peptide 32 µM) [%]
CC(C)C[C@H](NC(=O)[C@H](CCCCN)NC(=O)[C@H](C)NC(=O)[C@H](C)NC(=O)CNC(=O)CNC(=O)[C@H](CCCNC(=N)N)NC(=O)[C@H](CCCNC(=N)N)NC(=O)[C@H](CCCNC(=N)N)NC(=O)[C@H](CCC(N)=O)NC(=O)[C@H](CCCNC(=N)N)NC(=O)[C@H](CCCNC(=N)N)NC(=O)[C@H](CCCCN)NC(=O)[C@H](CCCCN)NC(=O)[C@@H](N)CCCNC(=N)N)C(=O)N1CCC[C@H]1C(=O)N[C@@H](Cc1ccccc1)C(=O)N[C@@H](CCCNC(=N)N)C(=O)N[C@H]1CSSC[C@@H](C(=O)O)NC(=O)[C@H](Cc2ccccc2)NC(=O)[C@H](C)NC(=O)[C@H](C)NC(=O)[C@H](CCCCN)NC1=O [TAT-KOV2] (HELM PEPTIDE1{R.K.K.R.R.Q.R.R.R.G.G.A.A.K.L.P.F.R.C.K.A.A.F.C}$PEPTIDE1,PEPTIDE1,19:R3-24:R3$$$V2.0)	10.1	>128	>128	10%	96.8	92.4	64.9	45.8	–	–
CC(C)C[C@H](NC(=O)[C@H](CCCCN)NC(=O)[C@H](C)NC(=O)[C@H](C)N)C(=O)N1CCC[C@H]1C(=O)N[C@@H](Cc1ccccc1)C(=O)N[C@@H](CCCNC(=N)N)C(=O)N[C@H]1CSSC[C@@H](C(=O)O)NC(=O)[C@H](Cc2ccccc2)NC(=O)[C@H](C)NC(=O)[C@H](C)NC(=O)[C@H](CCCCN)NC1=O [Kunitzin-OV2] (HELM PEPTIDE1{A.A.K.L.P.F.R.C.K.A.A.F.C}$PEPTIDE1,PEPTIDE1,8:R3-13:R3$$$V2.0)	9.82	>128	>128	less than 10%	–	–	–	–	–	–
CC(C)C[C@H](NC(=O)[C@H](CCCCN)NC(=O)[C@H](C)NC(=O)[C@H](C)N)C(=O)N1CCC[C@H]1C(=O)N[C@@H](Cc1ccccc1)C(=O)N[C@@H](CCCNC(=N)N)C(=O)N[C@H]1CSSC[C@@H](C(=O)O)NC(=O)[C@H](Cc2ccccc2)NC(=O)[C@H](C)NC(=O)[C@H](C)NC(=O)[C@H](Cc2ccccc2)NC1=O [F9-KOV2] (HELM PEPTIDE1{A.A.K.L.P.F.R.C.F.A.A.F.C}$PEPTIDE1,PEPTIDE1,8:R3-13:R3$$$V2.0)	–	>128	>128	less than 10%	–	–	–	–	N.I.	–
CC(C)C[C@H](NC(=O)[C@H](CCCCN)NC(=O)[C@H](C)NC(=O)[C@H](C)NC(=O)CNC(=O)CNC(=O)[C@H](CCCNC(=N)N)NC(=O)[C@H](CCCNC(=N)N)NC(=O)[C@H](CCCNC(=N)N)NC(=O)[C@H](CCC(N)=O)NC(=O)[C@H](CCCNC(=N)N)NC(=O)[C@H](CCCNC(=N)N)NC(=O)[C@H](CCCCN)NC(=O)[C@H](CCCCN)NC(=O)[C@@H](N)CCCNC(=N)N)C(=O)N1CCC[C@H]1C(=O)N[C@@H](Cc1ccccc1)C(=O)N[C@@H](CCCNC(=N)N)C(=O)N[C@H]1CSSC[C@@H](C(=O)O)NC(=O)[C@H](Cc2ccccc2)NC(=O)[C@H](C)NC(=O)[C@H](C)NC(=O)[C@H](Cc2ccccc2)NC1=O [TAT-F9-KOV2] (HELM PEPTIDE1{R.K.K.R.R.Q.R.R.R.G.G.A.A.K.L.P.F.R.C.F.A.A.F.C}$PEPTIDE1,PEPTIDE1,19:R3-24:R3$$$V2.0)	–	>128	>128	about 25%	44.3	9.9	43.6	2.2	N.I.	10
